Results from ChEMBL document CHEMBL2177009, “The use of novel C-methylated spermidine derivatives to investigate the regulation of polyamine metabolism” (J Med Chem, 2011).
The source made the active and inactive calls. No cut-off for these calls is given here.

What was measured:
[1] = system: DU-145; assay: Displacement of [14C]-spermidine from polyamine transporter in human DU145 cells at 1 to 100 uM after 10 mins; format: cell-based
[2] = target: T1, S-adenosylmethionine decarboxylase proenzyme (Homo sapiens) (UniProt P17707); assay: Activity of S-adenosyl-L-methionine decarboxylase in human DU145 cells assessed per ug DNA at 100 uM after 72 hrs in presence of serum amine oxidase inhibitor aminoguanidine (RVb = 72 +/- 6 pmol/h per ug DNA); format: cell-based; conditions: DU-145
T1 sequence (whole entry): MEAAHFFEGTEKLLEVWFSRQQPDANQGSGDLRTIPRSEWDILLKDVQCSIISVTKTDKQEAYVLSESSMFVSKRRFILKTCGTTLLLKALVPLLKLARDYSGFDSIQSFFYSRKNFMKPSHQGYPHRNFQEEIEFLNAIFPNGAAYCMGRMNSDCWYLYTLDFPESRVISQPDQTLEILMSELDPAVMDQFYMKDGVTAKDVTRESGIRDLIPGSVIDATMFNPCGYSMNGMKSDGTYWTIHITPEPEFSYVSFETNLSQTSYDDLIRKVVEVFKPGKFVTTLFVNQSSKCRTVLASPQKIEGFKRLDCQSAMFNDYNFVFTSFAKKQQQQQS

[3] = target: Peroxisomal N(1)-acetyl-spermine/spermidine oxidase (Homo sapiens) (UniProt Q6QHF9); assay: Activity of APAO in human DU145 cells assessed per ug DNA at 100 uM after 48 hrs in presence of serum amine oxidase inhibitor aminoguanidine (RVb = 699 +/- 21 pmol/h per ug DNA); format: cell-based; conditions: DU-145
[4] = target: Peroxisomal N(1)-acetyl-spermine/spermidine oxidase (Homo sapiens) (UniProt Q6QHF9); assay: Activity of APAO in human DU145 cells assessed per ug DNA at 100 uM after 24 hrs in presence of serum amine oxidase inhibitor aminoguanidine (RVb = 540 +/- 61 pmol/h per ug DNA); format: cell-based; conditions: DU-145
[5] = target: Spermine oxidase (Homo sapiens) (UniProt Q9NWM0); assay: Activity of spermine oxidase in human DU145 cells assessed per ug DNA at 100 uM after 24 hrs in presence of serum amine oxidase inhibitor aminoguanidine (RVb = 493 +/- 22 pmol/h per ug DNA); format: cell-based; conditions: DU-145
[6] = target: T2, Ornithine decarboxylase (Homo sapiens) (UniProt P11926); assay: Activity of ornithine decarboxylase in human DU145 cells assessed per ug DNA at 100 uM after 48 hrs in presence of serum amine oxidase inhibitor aminoguanidine (RVb = 17.7+/- 2.6 pmol/h per ug DNA); format: cell-based; conditions: DU-145
T2 sequence (whole entry): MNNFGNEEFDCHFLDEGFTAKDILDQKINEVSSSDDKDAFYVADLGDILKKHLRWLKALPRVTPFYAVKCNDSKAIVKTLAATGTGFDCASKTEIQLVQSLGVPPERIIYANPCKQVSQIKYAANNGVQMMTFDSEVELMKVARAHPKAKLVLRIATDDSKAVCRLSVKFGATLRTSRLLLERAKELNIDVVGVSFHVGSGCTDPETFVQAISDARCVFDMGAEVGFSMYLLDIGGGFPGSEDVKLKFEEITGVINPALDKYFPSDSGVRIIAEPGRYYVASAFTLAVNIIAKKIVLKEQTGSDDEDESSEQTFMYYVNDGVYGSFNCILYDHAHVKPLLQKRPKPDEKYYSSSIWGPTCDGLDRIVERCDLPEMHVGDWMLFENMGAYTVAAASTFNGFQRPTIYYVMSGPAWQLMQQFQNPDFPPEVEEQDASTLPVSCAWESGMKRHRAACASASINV

[7] = target: T2, Ornithine decarboxylase (Homo sapiens); assay: Activity of ornithine decarboxylase in human DU145 cells assessed per ug DNA at 100 uM after 24 hrs in presence of serum amine oxidase inhibitor aminoguanidine (RVb = 29.3 +/- 1.4 pmol/h per ug DNA); format: cell-based; conditions: DU-145
[8] = system: Nucleic Acid; assay: Induction of SSAT alternative splicing in mouse primary fetal fibroblasts assessed as SSAT-X mRNA at 100 uM by qRT-PCR in presence of CHX relative to total SSAT mRNA
[9] = target: Spermine oxidase (Homo sapiens) (UniProt Q9NWM0); assay: Activity of spermine oxidase in human DU145 cells assessed per ug DNA at 100 uM after 72 hrs in presence of serum amine oxidase inhibitor aminoguanidine (RVb = 742 +/- 10 pmol/h per ug DNA); format: cell-based; conditions: DU-145
[10] = target: Diamine acetyltransferase 1 (Homo sapiens) (UniProt P21673); assay: Activity of SSAT in human DU145 cells assessed per ug DNA at 100 uM after 48 hrs in presence of serum amine oxidase inhibitor aminoguanidine (RVb = 58 pmol/h per ug DNA); format: cell-based; conditions: DU-145
[11] = target: Diamine acetyltransferase 1 (Homo sapiens) (UniProt P21673); assay: Activity of SSAT in human DU145 cells assessed per ug DNA at 100 uM after 24 hrs in presence of serum amine oxidase inhibitor aminoguanidine (RVb = 59 +/- 1 pmol/h per ug DNA); format: cell-based; conditions: DU-145
[12] = target: Diamine acetyltransferase 1 (Homo sapiens) (UniProt P21673); assay: Activity of SSAT in human DU145 cells assessed per ug DNA at 100 uM after 72 hrs in presence of serum amine oxidase inhibitor aminoguanidine (RVb = 62 +/- 4 pmol/h per ug DNA); format: cell-based; conditions: DU-145
[13] = target: Peroxisomal N(1)-acetyl-spermine/spermidine oxidase (Homo sapiens) (UniProt Q6QHF9); assay: Activity of APAO in human DU145 cells assessed per ug DNA at 100 uM after 72 hrs in presence of serum amine oxidase inhibitor aminoguanidine (RVb = 662 +/- 48 pmol/h per ug DNA); format: cell-based; conditions: DU-145
[14] = target: Spermine oxidase (Homo sapiens) (UniProt Q9NWM0); assay: Activity of spermine oxidase in human DU145 cells assessed per ug DNA at 100 uM after 48 hrs in presence of serum amine oxidase inhibitor aminoguanidine (RVb = 680 +/- 29 pmol/h per ug DNA); format: cell-based; conditions: DU-145
[15] = target: T2, Ornithine decarboxylase (Homo sapiens); assay: Activity of ornithine decarboxylase in human DU145 cells assessed per ug DNA at 100 uM after 72 hrs in presence of serum amine oxidase inhibitor aminoguanidine (RVb = 7.5+/- 0.9 pmol/h per ug DNA); format: cell-based; conditions: DU-145
[16] = target: T1, S-adenosylmethionine decarboxylase proenzyme (Homo sapiens); assay: Activity of S-adenosyl-L-methionine decarboxylase in human DU145 cells assessed per ug DNA at 100 uM after 48 hrs in presence of serum amine oxidase inhibitor aminoguanidine (RVb = 73 +/- 1 pmol/h per ug DNA); format: cell-based; conditions: DU-145
[17] = target: T1, S-adenosylmethionine decarboxylase proenzyme (Homo sapiens); assay: Activity of S-adenosyl-L-methionine decarboxylase in human DU145 cells assessed per ug DNA at 100 uM after 24 hrs in presence of serum amine oxidase inhibitor aminoguanidine (RVb = 61 +/- 5 pmol/h per ug DNA); format: cell-based; conditions: DU-145

Spermine oxidase (Homo sapiens), sequence (Q9NWM0 whole entry): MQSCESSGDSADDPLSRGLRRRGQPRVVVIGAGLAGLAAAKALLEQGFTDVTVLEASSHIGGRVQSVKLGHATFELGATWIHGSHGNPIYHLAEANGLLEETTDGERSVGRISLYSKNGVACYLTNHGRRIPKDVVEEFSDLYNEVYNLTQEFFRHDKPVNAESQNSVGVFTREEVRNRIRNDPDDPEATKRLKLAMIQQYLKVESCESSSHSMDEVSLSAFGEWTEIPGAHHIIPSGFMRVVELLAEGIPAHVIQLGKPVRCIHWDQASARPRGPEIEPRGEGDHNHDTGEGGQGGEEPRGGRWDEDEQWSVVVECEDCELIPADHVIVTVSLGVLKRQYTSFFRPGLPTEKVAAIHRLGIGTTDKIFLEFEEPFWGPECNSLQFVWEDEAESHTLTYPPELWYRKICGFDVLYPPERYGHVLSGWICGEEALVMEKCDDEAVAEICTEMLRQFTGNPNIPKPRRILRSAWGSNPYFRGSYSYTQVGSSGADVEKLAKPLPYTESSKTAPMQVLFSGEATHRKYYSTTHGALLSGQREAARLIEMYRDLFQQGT
Diamine acetyltransferase 1 (Homo sapiens), sequence (P21673 whole entry): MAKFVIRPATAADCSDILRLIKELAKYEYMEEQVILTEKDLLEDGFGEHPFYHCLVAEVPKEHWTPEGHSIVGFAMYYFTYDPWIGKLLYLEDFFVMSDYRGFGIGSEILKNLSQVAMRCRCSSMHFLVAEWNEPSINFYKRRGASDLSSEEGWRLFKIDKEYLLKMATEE
Peroxisomal N(1)-acetyl-spermine/spermidine oxidase (Homo sapiens), sequence (Q6QHF9 whole entry): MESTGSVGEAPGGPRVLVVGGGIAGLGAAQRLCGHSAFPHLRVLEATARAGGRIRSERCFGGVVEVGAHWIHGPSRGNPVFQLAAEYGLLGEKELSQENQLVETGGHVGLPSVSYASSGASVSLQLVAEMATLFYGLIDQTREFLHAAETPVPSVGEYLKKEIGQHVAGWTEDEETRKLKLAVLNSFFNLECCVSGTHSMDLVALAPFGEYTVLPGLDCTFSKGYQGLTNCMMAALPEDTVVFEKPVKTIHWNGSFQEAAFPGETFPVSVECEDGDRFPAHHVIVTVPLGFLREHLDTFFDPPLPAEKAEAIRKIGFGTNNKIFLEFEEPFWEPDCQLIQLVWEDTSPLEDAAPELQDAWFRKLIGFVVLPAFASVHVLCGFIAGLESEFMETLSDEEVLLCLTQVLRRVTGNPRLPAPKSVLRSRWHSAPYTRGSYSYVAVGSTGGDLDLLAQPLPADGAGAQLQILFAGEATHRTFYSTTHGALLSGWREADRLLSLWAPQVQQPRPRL

SMILES | Activity [1] | Activity [2] [pmol/h] | Activity [3] [pmol/h] | Activity [4] [pmol/h] | Activity [5] [pmol/h] | Activity [6] [pmol/h] | Activity [7] [pmol/h] | Activity [8] | Activity [9] [pmol/h] | Activity [10] [pmol/h] | Activity [11] [pmol/h] | Activity [12] [pmol/h] | Activity [13] [pmol/h] | Activity [14] [pmol/h] | Activity [15] [pmol/h] | Activity [16] [pmol/h] | Activity [17] [pmol/h]
NCCCCNCCCN | Active | – | – | – | – | – | – | – | – | – | – | – | – | – | – | – | –
CC(N)CCCNCCCN (stereo not given) | Active | 63 | 770 | 562 | 515 | 5.5 | 4.7 | Active | 832 | 62 | 65 | 61 | 737 | 738 | 3.8 | 67 | 53
CC(CN)CNCCCCN (stereo not given) | Active | 79 | 719 | 562 | 394 | 16.6 | 21.7 | Active | 608 | 59 | 56 | 61 | 732 | 655 | 9.1 | 71 | 67
C[C@H](N)CCNCCCCN | Active | 75 | 779 | 545 | 362 | 4.4 | 4.3 | Active | 754 | 61 | 67 | 66 | 745 | 695 | 3.5 | 72 | 64
CC(CCN)NCCCCN (stereo not given) | Active | 58 | 693 | 528 | 204 | 9.3 | 8.8 | Active | 571 | 59 | 62 | 69 | 775 | 474 | 5.4 | 60 | 53
CCNCCCNCCCNCCCNCC | – | – | – | – | – | – | – | Active | – | – | – | – | – | – | – | – | –
